The values below come from US8669292B2, “Therapeutic formulation” (Orion Therapeutics, LLC, priority 2005, dated 2014).

≈ marks a conversion by molar mass, not a printed value. Where two headings read alike, the source gives them in different places.

The subject of assay [1] is HCT-116 human colon cancer cells. As to the kind of experiment: IC50 assay (concentration-cell number study). It is filed as cell-based. The settings on record: HCT-116, 120 h exposure. How it is done:
Concentration-cell number studies (IC50 assay) were carried out utilizing 12 separate compositions (numbered 1-12 below) against 13 different cancer cell lines (see Table 6). […] On day 3, cells are exposed to different concentrations of the drug. Flasks are incubated for 120 h (5 d) in a 5% CO2 incubator at 37° C. and the cells harvested with trypsin, washed once with Hanks Balanced Salt Solution (HBSS) and re-suspended in HBSS containing 0.08% Trypan Blue. Both viable and dead cells are counted using a hemocytometer. Viable cell numbers are normalized to an untreated control and plotted as a function of drug concentration. The IC50 value is determined using Prism 4.0.

Assay [2] is described as follows: ORAC total (Brunswick Test # A103). It is filed as biochemical. The following applies: Cantron oral liquid scores converted from TE/L to TE/g. How it is done: (§1) Peroxyl radical scores are measured in the ORAC test (Oxygen Radical Absorption Capacity). Hydroxyl Radicals are tested in the HORAC test (Hydroxyl Radical Absorption Capacity). Peroxynitrite Radicals are tested in the NORAC test (Peroxynitrite Radical Absorption Capacity). Superoxide Radicals are measured in the SOD test (Superoxide Radical Absorption Capacity). The ORAC test measures the antioxidant activity against peroxyl radicals by determining how many peroxyl free radicals can be absorbed by a given antioxidant as compared to the vitamin E analog-Trolox. The result is expressed as micromoles of Trolox equivalent per liter (TE/L) for liquid formulations and Trolox equivalent per gram (TE/g) for dry powders. Brunswick tested the Applicant's compounds for antioxidant activity against both hydrophilic and lipophilic peroxyl radicals as expressed in the ORAC total (see table 7).

Assay [3] can be described thus: ORAC hydro (Brunswick Test # A101). The format is biochemical. The settings on record: Cantron oral liquid scores converted from TE/L to TE/g. How it is done:
as §1

Assay [4] can be described thus: ORAC lipo (Brunswick Test # A102). The format is biochemical. The following applies: Cantron oral liquid scores converted from TE/L to TE/g. How it is done:
as §1

Assay [5] in a line: HORAC (Brunswick Test # A104). It is filed as biochemical. The settings on record: Cantron oral liquid scores converted from CAE/L to CAE/g. How it is done: Peroxyl radical scores are measured in the ORAC test (Oxygen Radical Absorption Capacity). Hydroxyl Radicals are tested in the HORAC test (Hydroxyl Radical Absorption Capacity). Peroxynitrite Radicals are tested in the NORAC test (Peroxynitrite Radical Absorption Capacity). Superoxide Radicals are measured in the SOD test (Superoxide Radical Absorption Capacity). […] The result is expressed as micromoles of caffeic acid equivalent per liter (CAE/L) for liquid formulations and caffeic acid equivalent per gram (CAE/g) for dry powders.

Assay [6] is described as follows: NORAC (Brunswick Test # A105). It is filed as biochemical. The following applies: Cantron oral liquid scores converted from TE/L to TE/g. How it is done: Peroxyl radical scores are measured in the ORAC test (Oxygen Radical Absorption Capacity). Hydroxyl Radicals are tested in the HORAC test (Hydroxyl Radical Absorption Capacity). Peroxynitrite Radicals are tested in the NORAC test (Peroxynitrite Radical Absorption Capacity). Superoxide Radicals are measured in the SOD test (Superoxide Radical Absorption Capacity). Applicant's compounds and compositions were tested by the NORAC test (Brunswick test # A 105), which measures the activity of a given antioxidant against peroxynitrite radicals. NORAC tests were based on the method of Chung H. et al (2001) Journal Agricultural of Food Chemistry, 49: 3614-3621. Scores are expressed in micromoles of trolox equivalent per liter (TE/L) for liquid formulations and Trolox equivalent per gram (TE/g) for dry powders.

A short description of assay [7]: SORAC (Brunswick Test # A106). It is filed as biochemical. The settings on record: Cantron oral liquid scores converted from unitsSODeq/L to unitsSODeq/g. How it is done:
Peroxyl radical scores are measured in the ORAC test (Oxygen Radical Absorption Capacity). Hydroxyl Radicals are tested in the HORAC test (Hydroxyl Radical Absorption Capacity). Peroxynitrite Radicals are tested in the NORAC test (Peroxynitrite Radical Absorption Capacity). Superoxide Radicals are measured in the SOD test (Superoxide Radical Absorption Capacity). Applicant's compounds and compositions were tested by the SORAC test (Brunswick test #106), which measures the activity of a given antioxidant against Superoxide radicals. The tests were conducted based on the method of Zhao et al (1999) Journal of Agricultural and Food Chemistry, (1999), 47: 2537-2543. The calibration standard was SOD and was expressed as a unit SOD equivalent per liter (unitsSODeq/L) for liquid formulations and unit SOD equivalent per gram (unitsSODeq/g) for dry powders.

Assay [8] has as its system H125 Lung Cancer. As to the kind of experiment: IC50 assay (concentration-cell number study). It is filed as cell-based. The following applies: 120 h exposure.
Procedure: (§2) These cells are grown in 5 ml culture medium (RPMI-1640+15% Bovine Calf serum containing 1% penicillin-streptomycin, and 1% Glutamine) at 37° C. and 5% CO2 at a starting concentration of 5×10^4 cells/T25 flask. On day 3, cells are exposed to different concentrations of the drug. Flasks are incubated for 120 h (5 d) in a 5% CO2 incubator at 37° C. and the cells harvested with trypsin, washed once with Hanks Balanced Salt Solution (HBSS) and re-suspended in HBSS containing 0.08% Trypan Blue. Both viable and dead cells are counted using a hemocytometer. Viable cell numbers are normalized to an untreated control and plotted as a function of drug concentration. The IC50 value is determined using Prism 4.0.
(§3) Cell Lines utilized in IC50 Assays: HCT-116 human colon cancer cells, H125 Lung Cancer, MCF-7, Breast Cancer, MDA-235 Breast Cancer, LNCaP Prostate Cancer, OVAR-5 Ovarian Cancer, U251N Brain Cancer Sarcoma 180, Panc 01Pancreatic Cancer, CCRF-CEM Leukemia, HEP-G2 Liver Cancer, L1210 Leukemia, Colon 38 Colon Cancer.
For assay [9], the system named is MCF-7 Breast Cancer. The assay can be described thus: IC50 assay (concentration-cell number study). It is filed as cell-based. The settings on record: 120 h exposure.
Procedure: (§4) Concentration-cell number studies (IC50 assay) were carried out utilizing 12 separate compositions (numbered 1-12 below) against 13 different cancer cell lines (see Table 6). These cells are grown in 5 ml culture medium (RPMI-1640+15% Bovine Calf serum containing 1% penicillin-streptomycin, and 1% Glutamine) at 37° C. and 5% CO2 at a starting concentration of 5×10^4 cells/T25 flask. On day 3, cells are exposed to different concentrations of the drug. Flasks are incubated for 120 h (5 d) in a 5% CO2 incubator at 37° C. and the cells harvested with trypsin, washed once with Hanks Balanced Salt Solution (HBSS) and re-suspended in HBSS containing 0.08% Trypan Blue. Both viable and dead cells are counted using a hemocytometer. Viable cell numbers are normalized to an untreated control and plotted as a function of drug concentration. The IC50 value is determined using Prism 4.0.
The subject of assay [10] is MDA-235 Breast Cancer. The assay can be described thus: IC50 assay (concentration-cell number study). It is filed as cell-based. The following applies: 120 h exposure.
Procedure: as §4
Assay [11] deals with LNCaP Prostate Cancer. As to the kind of experiment: IC50 assay (concentration-cell number study). It is filed as cell-based. The following applies: 120 h exposure.
Procedure: as §4
In assay [12] the test system is OVAR-5 Ovarian Cancer. As to the kind of experiment: IC50 assay (concentration-cell number study). It is filed as cell-based. The following applies: 120 h exposure.
Procedure: as §4
Assay [13] has as its system U251N Brain Cancer. As to the kind of experiment: IC50 assay (concentration-cell number study). It is filed as cell-based. The settings on record: 120 h exposure.
Procedure: as §4
Assay [14] relates to Sarcoma 180. The assay can be described thus: IC50 assay (concentration-cell number study). It is filed as cell-based. The following applies: 120 h exposure.
Procedure: as §4
Assay [15] concerns Panc 01 Pancreatic Cancer. The assay can be described thus: IC50 assay (concentration-cell number study). The settings on record: 120 h exposure. The format is cell-based.
Procedure: as §4
For assay [16], the system named is CCRF-CEM Leukemia. As to the kind of experiment: IC50 assay (concentration-cell number study). It is filed as cell-based. The settings on record: 120 h exposure.
Procedure: as §4
In assay [17] the test system is HEP-G2 Liver Cancer. As to the kind of experiment: IC50 assay (concentration-cell number study). The format is cell-based. The following applies: 120 h exposure.
Procedure: as §4
For assay [18], the system named is L1210 Leukemia. As to the kind of experiment: IC50 assay (concentration-cell number study). The format is cell-based. The following applies: 120 h exposure.
Procedure: as §4
Assay [19] deals with Colon 38 Colon Cancer. The assay can be described thus: IC50 assay (concentration-cell number study). It is filed as cell-based. The following applies: 120 h exposure.
Procedure: as §2, §3
Assay [20] deals with 13 different cancer cell lines. As to the kind of experiment: IC50 assays, average or range over all cell lines. It is filed as cell-based. The following applies: average of 13 cell lines.
Procedure: as §2, §3
For assay [21], the system named is HCT-116 human colon cancer cells. As to the kind of experiment: Clonogenic dose response. It is filed as cell-based. How it is done: Clonogenic survival of the cells was measured by a standard tissue culture procedure.
Asimicin was prepared in ethanol. Clonogenic survival of the cells was measured by a standard tissue culture procedure.

[22] abbreviates: Homo sapiens, HCT-116, 120 h, read-out: IC50.

With `O=c1[nH]cc(F)c(=O)[nH]1` [5-Fluorouracil, reference compound], in assay [1] (setting [22]), the IC50 came out at 0.15 µg/mL (≈ 1.15 µM).
With `COc1cccc2c1C(=O)c1c(O)c3c(c(O)c1C2=O)C[C@@](O)(C(=O)CO)C[C@@H]3O[C@H]1C[C@H](N)[C@H](O)[C@H](C)O1` [Adriamycin, reference compound], the concentration for half-maximal inhibition (IC50) in assay [1] (setting [22]) is 0.03 µg/mL (≈ 0.0552 µM).
Regarding `O=C(O)CCCCC1CCSS1` (stereo not drawn) [Alpha-lipoic acid, reference compound], the IC50 in assay [1] (setting [22]) is more than 100 µg/mL.
On to `O=C1C(O)=C(O)C(=O)C(O)=C1O` [Composition 4, tetrahydroxy-1,4-quinone], for which the “TOTAL ORAC SCORE” value in assay [2] is 1,508 micromoles TE/g. For the same molecule, in assay [3], the “ORAC hydro SCORE” value was 1,507 micromoles TE/g. For the same molecule, in assay [4], the “ORAC lipo SCORE” value is on record as 1 micromoles TE/g. In [5], the “HORAC SCORE” value turned out to be 129 micromoles CAE/g. Also, the “NORAC SCORE” value in assay [6] is recorded as 438 micromoles TE/g. For the same molecule, the “SOD SCORE” value in assay [7] is reported as 145,000 unitsSODeq/g. In addition, the IC50 in assay [1] came out at 17.0 µg/mL (≈ 98.8 µM); in assay [1] (listed as 4), 17 µg/mL (≈ 98.8 µM); in assay [8], 53 µg/mL (≈ 308 µM); in assay [9], 5.9 µg/mL (≈ 34.3 µM); in assay [10], 5.8 µg/mL (≈ 33.7 µM); in [11], 54 µg/mL (≈ 314 µM). Further, the IC50 in [12] was 28 µg/mL (≈ 163 µM); in assay [13], 8.0 µg/mL (≈ 46.5 µM); in [14], 51 µg/mL (≈ 296 µM); in assay [15], 24 µg/mL (≈ 139 µM); in [16], 7.0 µg/mL (≈ 40.7 µM); in [17], 8.5 µg/mL (≈ 49.4 µM). Moreover, the IC50 amounted to 49 µg/mL (≈ 285 µM) in [18] and 19 µg/mL (≈ 110 µM) in assay [19]. The “IC50 AVG.” value in assay [20] turned out to be 25 µg/mL (≈ 145 µM).
Turning to `O=c1c(O)c(O)c(=O)c1=O` [Croconic Acid], the “TOTAL ORAC SCORE” value in assay [2] is 1,106 micromoles TE/g. Further, the “ORAC hydro SCORE” value in [3] is 1,106 micromoles TE/g. The “ORAC lipo SCORE” value in assay [4] stood at 0 micromoles TE/g. For the same molecule, the “HORAC SCORE” value in [5] was 19 micromoles CAE/g. The “NORAC SCORE” value in assay [6] came out at 1 micromoles TE/g. Further, the “SOD SCORE” value in assay [7] was 0 unitsSODeq/g.
`CC(=O)O[C@H]1C(=O)[C@@]2(C)[C@H]([C@H](OC(=O)c3ccccc3)[C@]3(O)C[C@H](OC(=O)[C@H](O)[C@@H](NC(=O)c4ccccc4)c4ccccc4)C(C)=C1C3(C)C)[C@]1(OC(C)=O)CO[C@@H]1C[C@@H]2O` [Taxol, reference compound]: in [1] (setting [22]), the concentration for half-maximal inhibition (IC50) was 0.0002 µg/mL (≈ 0.000234 µM).
Take `CC[C@]1(O)C[C@H]2CN(CCc3c([nH]c4ccccc34)[C@@](C(=O)OC)(c3cc4c(cc3OC)N(C=O)[C@H]3[C@@](O)(C(=O)OC)[C@H](OC(C)=O)[C@]5(CC)C=CCN6CC[C@]43[C@@H]65)C2)C1` [Vincristine, reference compound]: the IC50 in assay [1] (setting [22]) stood at 0.005 µg/mL (≈ 0.00606 µM).
For `O=C1O[C@H]([C@@H](O)CO)C(O)=C1O` [Vitamin C, reference compound], the IC50 in assay [1] (setting [22]) was more than 100 µg/mL.
In turn, `N.N.[Cl][Pt][Cl]` [cis-Platinum, reference compound] displayed an IC50 in assay [1] of 0.10 µg/mL.
Take Acetogenin [Composition 3]: the IC50 in assay [1] is 0.002 µg/mL; in [1] (listed as 3), 0.002 µg/mL; in assay [8] it was 0.0014 µg/mL; in assay [9], 0.0013 µg/mL; in assay [10], 0.0013 µg/mL; in [11], 0.005 µg/mL. The IC50 in assay [12] worked out at 0.0018 µg/mL; in assay [13], 0.0012 µg/mL; in assay [14], 0.0012 µg/mL; in [15], 0.00041 µg/mL; in assay [16] it was 0.0052 µg/mL; in [17] it was 0.0022 µg/mL. The IC50 in assay [18] stood at 0.013 µg/mL; in assay [19], 0.00019 µg/mL. In addition, in assay [20], the “IC50 AVG.” value was determined as 0.0028 µg/mL.
For the molecule Asimicin, the clonogenic survival in [21] (24 h exposure, 10 micrograms/ml) was 0.1. Besides, in assay [21] (24 h exposure, concentrations up to 1 microgram/ml), the “effect on clonogenic survival” value is given as “no effect”. The “fold greater cell killing than found with the 24 h exposure” value in [21] (168 h versus 24 h exposure) is on record as approximately 100.000 fold. For the same molecule, in assay [21] (concentration of up to 10 micrograms/ml, exposure time not given), the “effect on the survival of the tumor cells” value is recorded as “no effect”. In assay [21] (extended exposure 168 h), the “concentration with cell survival at the 0.1 level” value turned out to be 200 picograms/ml.
In [1], Vitamin E [reference compound] came in with an IC50 of more than 100 µg/mL.

The term IC50 denotes the concentration needed to halve the response being measured.
